Structures are written as SMILES.

The assay has as its system Radical scavenging activity. The assay can be described thus: Antioxidant activity assessed as DPPH radical scavenging activity after 20 mins by UV-visible spectrophotometry. Type of assay: functional.

For `Cc1c(C)c2c(c(C)c1O)CC[C@@](C)(CCC[C@H](C)CCC[C@H](C)CCCC(C)C)O2` [ALPHA-TOCOPHEROL], the EC50 turned out to be 10.1 µg. As to `O=C(O)c1cc(O)c(O)c(O)c1` [GALLIC ACID], the EC50 amounted to 1.2 µg. As for `O=c1c(O)c(-c2ccc(O)cc2)oc2cc(O)cc(O)c12` [KAEMPFEROL], the EC50 was determined as 4.4 µg. To `O=c1c(O)c(-c2ccc(O)c(O)c2)oc2cc(O[C@@H]3O[C@H](CO)[C@@H](O)[C@H](O)[C@H]3O)c(O)c(O)c12` belongs 4.6 µg; to `C[C@@H]1O[C@@H](OC[C@H]2O[C@@H](Oc3c(-c4ccc(O)c(O)c4)oc4cc(O)cc(O)c4c3=O)[C@H](O)[C@@H](O)[C@@H]2O)[C@H](O)[C@H](O)[C@H]1O` [RUTIN], 4.8 µg; to `O=c1c(O)c(-c2ccc(O)cc2)oc2cc(O[C@@H]3O[C@H](CO)[C@@H](O)[C@H](O)[C@H]3O)c(O)c(O)c12`, 6.9 µg. Then `O=c1c(O)c(-c2ccc(O)c(O)c2)oc2cc(O)cc(O)c12` [QUERCETIN], with 2.3 µg. To `O=C(O)/C=C/c1ccc(O)c(O)c1` [CAFFEIC ACID] belongs 3 µg.
